Measurements reported in the supplement of paper PMC11061612.

How the values were obtained:
Assay in all cases: combination Emax (second highest fraction inhibited in the dose matrix, 72 h); higher = more inhibition; extreme values may be limits of the assay
[1] = test system: PANC-03-27 (Pancreatic Carcinoma)
How it was run: (§1)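 Bliss excess equals the observed combination effect minus the expected value EA + EB − EA·EB, where EA and EB are the effects of each agent alone. Combination Emax is the second-highest inhibition within the matrix. Inhibition was scaled from CellTiter-Glo 2.0 luminescence, with 0 set by vehicle wells and 1 by blank wells, after 72 hours of two-drug dosing of cells plated in 1536-well plates.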

[2] = test system: GB-1 (Glioblastoma)
How it was run: as §1

[3] = test system: LK-2 (Squamous Cell Lung Carcinoma)
How it was run: as §1

[4] = test system: SF539 (Glioblastoma)
How it was run: as §1

[5] = test system: NCI-H23 (Lung Adenocarcinoma)
How it was run: as §1

[6] = test system: OAW-42 (Ovarian Carcinoma)
How it was run: as §1

CN(C)CCCOc1ccc(-c2ccc3ncc4c(c3c2)n(C2CCOCC2)c(=O)n4C)cn1 [AZD0156] + C=CCn1c(=O)c2cnc(Nc3ccc(N4CCN(C)CC4)cc3)nc2n1-c1cccc(C(C)(C)O)n1 [AZD1775] (first compound max 1 µM, partner max 1 µM)
combination Emax [1]: 0.91 | combination Emax [2]: 0.263 | combination Emax [3]: 0.898 | combination Emax [4]: 1 | combination Emax [5]: 0.815

CN(C)CCCOc1ccc(-c2ccc3ncc4c(c3c2)n(C2CCOCC2)c(=O)n4C)cn1 [AZD0156] + CCN(CCO)CCCOc1ccc2c(Nc3cc(CC(=O)Nc4cccc(F)c4)[nH]n3)ncnc2c1 [AZD2811] (first compound max 1 µM, 7x7, partner max 1 µM)
combination Emax [1]: 0.2 | combination Emax [2]: 0.0845 | combination Emax [3]: 0.834 | combination Emax [4]: 0.394 | combination Emax [5]: 0.151

CN(C)CCCOc1ccc(-c2ccc3ncc4c(c3c2)n(C2CCOCC2)c(=O)n4C)cn1 [AZD0156] + C[C@@H]1COCCN1C2=NC(=NC(=C2)C3(CC3)[S@](=N)(=O)C)C4=C5C=CNC5=NC=C4 [AZD6738] (first compound max 1 µM, 7x7, partner max 10 µM)
combination Emax [1]: 0.862 | combination Emax [2]: 0.392 | combination Emax [3]: 0.501 | combination Emax [4]: 0.929 | combination Emax [5]: 0.786

C=CCn1c(=O)c2cnc(Nc3ccc(N4CCN(C)CC4)cc3)nc2n1-c1cccc(C(C)(C)O)n1 [AZD1775] + C[C@@H]1COCCN1C2=NC(=NC(=C2)C3(CC3)[S@](=N)(=O)C)C4=C5C=CNC5=NC=C4 [AZD6738] (first compound max 1 µM, partner max 10 µM)
combination Emax [1]: 0.939 | combination Emax [2]: 0.595 | combination Emax [3]: 0.882 | combination Emax [4]: 1 | combination Emax [5]: 0.913

C=CCn1c(=O)c2cnc(Nc3ccc(N4CCN(C)CC4)cc3)nc2n1-c1cccc(C(C)(C)O)n1 [AZD1775] + O=C(c1cc(Cc2n[nH]c(=O)c3ccccc23)ccc1F)N1CCN(C(=O)C2CC2)CC1 [Olaparib] (first compound max 1 µM, partner max 10 µM)
combination Emax [1]: 0.928 | combination Emax [2]: 0.318 | combination Emax [3]: 0.914 | combination Emax [4]: 1 | combination Emax [5]: 0.761

CCN(CCO)CCCOc1ccc2c(Nc3cc(CC(=O)Nc4cccc(F)c4)[nH]n3)ncnc2c1 [AZD2811] + C=CCn1c(=O)c2cnc(Nc3ccc(N4CCN(C)CC4)cc3)nc2n1-c1cccc(C(C)(C)O)n1 [AZD1775] (first compound max 1 µM, partner max 1 µM)
combination Emax [1]: 0.899 | combination Emax [2]: 0.332 | combination Emax [3]: 0.887 | combination Emax [4]: 1 | combination Emax [5]: 0.829

CCN(CCO)CCCOc1ccc2c(Nc3cc(CC(=O)Nc4cccc(F)c4)[nH]n3)ncnc2c1 [AZD2811] + C[C@@H]1COCCN1C2=NC(=NC(=C2)C3(CC3)[S@](=N)(=O)C)C4=C5C=CNC5=NC=C4 [AZD6738] (first compound max 1 µM, 7x7, partner max 10 µM)
combination Emax [1]: 0.837 | combination Emax [2]: 0.366 | combination Emax [3]: 0.698 | combination Emax [4]: 0.955 | combination Emax [5]: 0.785

CCN(CCO)CCCOc1ccc2c(Nc3cc(CC(=O)Nc4cccc(F)c4)[nH]n3)ncnc2c1 [AZD2811] + O=C(c1cc(Cc2n[nH]c(=O)c3ccccc23)ccc1F)N1CCN(C(=O)C2CC2)CC1 [Olaparib] (first compound max 1 µM, 7x7, partner max 10 µM)
combination Emax [1]: 0.379 | combination Emax [2]: 0.194 | combination Emax [3]: 0.765 | combination Emax [4]: 0.502 | combination Emax [5]: 0.235

COc1nnc2ccc(N3CCC(c4ccc(OCCN5CCN(C)C(=O)[C@H]5C)cc4)CC3)nn12 [AZD5153] + CN(CC[C@H](CSC1=CC=CC=C1)NC2=C(C=C(C=C2)S(=O)(=O)NC(=O)C3=CC=C(C=C3)N4CCC(CC4)[C@H](C5=CC=CC=C5C6=CC=C(C=C6)Cl)O)S(=O)(=O)C(F)(F)F)CCO [AZD4320] (first compound max 1 µM, 7x7, partner max 1 µM)
combination Emax [2]: 0.292 | combination Emax [6]: 0.41 | combination Emax [5]: 0.766

C[C@@H]1COCCN1c1cc(C2([S@](C)(=N)=O)CC2)nc(-c2ccnc3[nH]ccc23)n1 [AZD6738] + O=C(c1cc(Cc2n[nH]c(=O)c3ccccc23)ccc1F)N1CCN(C(=O)C2CC2)CC1 [Olaparib] (first compound max 10 µM, 7x7, partner max 10 µM)
combination Emax [1]: 0.829 | combination Emax [2]: 0.478 | combination Emax [3]: 0.485 | combination Emax [4]: 0.935 | combination Emax [5]: 0.753

Cc1cc2ncnn2cc1Nc1ncc2c(n1)n(C1CCOCC1)c(=O)n2C [AZD7648] + C=CCn1c(=O)c2cnc(Nc3ccc(N4CCN(C)CC4)cc3)nc2n1-c1cccc(C(C)(C)O)n1 [AZD1775] (first compound max 10 µM, partner max 1 µM)
combination Emax [1]: 0.878 | combination Emax [2]: 0.439 | combination Emax [3]: 0.894 | combination Emax [4]: 0.998 | combination Emax [5]: 0.786

Cc1cc2ncnn2cc1Nc1ncc2c(n1)n(C1CCOCC1)c(=O)n2C [AZD7648] + CCN(CCO)CCCOc1ccc2c(Nc3cc(CC(=O)Nc4cccc(F)c4)[nH]n3)ncnc2c1 [AZD2811] (first compound max 10 µM, 7x7, partner max 1 µM)
combination Emax [1]: 0.334 | combination Emax [2]: 0.166 | combination Emax [3]: 0.742 | combination Emax [4]: 0.462 | combination Emax [5]: 0.228

Cc1cc2ncnn2cc1Nc1ncc2c(n1)n(C1CCOCC1)c(=O)n2C [AZD7648] + CN(C)CCCOc1ccc(-c2ccc3ncc4c(c3c2)n(C2CCOCC2)c(=O)n4C)cn1 [AZD0156] (first compound max 10 µM, 7x7, partner max 1 µM)
combination Emax [1]: 0.318 | combination Emax [2]: 0.19 | combination Emax [3]: 0.269 | combination Emax [4]: 0.352 | combination Emax [5]: 0.103

Cc1cc2ncnn2cc1Nc1ncc2c(n1)n(C1CCOCC1)c(=O)n2C [AZD7648] + C[C@@H]1COCCN1C2=NC(=NC(=C2)C3(CC3)[S@](=N)(=O)C)C4=C5C=CNC5=NC=C4 [AZD6738] (first compound max 10 µM, 7x7, partner max 10 µM)
combination Emax [1]: 0.824 | combination Emax [2]: 0.544 | combination Emax [3]: 0.39 | combination Emax [4]: 0.85 | combination Emax [5]: 0.603

Cc1cc2ncnn2cc1Nc1ncc2c(n1)n(C1CCOCC1)c(=O)n2C [AZD7648] + O=C(c1cc(Cc2n[nH]c(=O)c3ccccc23)ccc1F)N1CCN(C(=O)C2CC2)CC1 [Olaparib] (first compound max 10 µM, 7x7, partner max 10 µM)
combination Emax [1]: 0.185 | combination Emax [2]: 0.23 | combination Emax [3]: 0.335 | combination Emax [4]: 0.406 | combination Emax [5]: 0.213

COc1cccc2c1C(=O)c1c(O)c3c(c(O)c1C2=O)C[C@@](O)(C(=O)CO)C[C@@H]3O[C@H]1C[C@H](N)[C@H](O)[C@H](C)O1 [Doxorubicin] + Cc1cc2ncnn2cc1Nc1ncc2c(n1)n(C1CCOCC1)c(=O)n2C [AZD7648] (first compound max 1 µM, 7x7, partner max 10 µM)
combination Emax [1]: 0.686 | combination Emax [2]: 0.418 | combination Emax [3]: 0.632 | combination Emax [4]: 0.934 | combination Emax [5]: 0.588

COc1cccc(OCCCN)c1-c1cc(Nc2cnc(C#N)cn2)n[nH]1 [Prexasertib] + C=CCn1c(=O)c2cnc(Nc3ccc(N4CCN(C)CC4)cc3)nc2n1-c1cccc(C(C)(C)O)n1 [AZD1775] (first compound max 1 µM, partner max 1 µM)
combination Emax [1]: 0.925 | combination Emax [2]: 0.651 | combination Emax [3]: 0.92 | combination Emax [4]: 1 | combination Emax [5]: 0.918

COc1cccc(OCCCN)c1-c1cc(Nc2cnc(C#N)cn2)n[nH]1 [Prexasertib] + CN(C)CCCOc1ccc(-c2ccc3ncc4c(c3c2)n(C2CCOCC2)c(=O)n4C)cn1 [AZD0156] (first compound max 1 µM, 7x7, partner max 1 µM)
combination Emax [1]: 0.902 | combination Emax [2]: 0.485 | combination Emax [3]: 0.726 | combination Emax [4]: 0.963 | combination Emax [5]: 0.882

COc1cccc(OCCCN)c1-c1cc(Nc2cnc(C#N)cn2)n[nH]1 [Prexasertib] + C[C@@H]1COCCN1C2=NC(=NC(=C2)C3(CC3)[S@](=N)(=O)C)C4=C5C=CNC5=NC=C4 [AZD6738] (first compound max 1 µM, 7x7, partner max 10 µM)
combination Emax [1]: 0.902 | combination Emax [2]: 0.691 | combination Emax [3]: 0.689 | combination Emax [4]: 0.972 | combination Emax [5]: 0.884

COc1cccc(OCCCN)c1-c1cc(Nc2cnc(C#N)cn2)n[nH]1 [Prexasertib] + Cc1cc2ncnn2cc1Nc1ncc2c(n1)n(C1CCOCC1)c(=O)n2C [AZD7648] (first compound max 1 µM, 7x7, partner max 10 µM)
combination Emax [1]: 0.898 | combination Emax [2]: 0.458 | combination Emax [3]: 0.755 | combination Emax [4]: 0.985 | combination Emax [5]: 0.889

COc1cccc(OCCCN)c1-c1cc(Nc2cnc(C#N)cn2)n[nH]1 [Prexasertib] + O=C(c1cc(Cc2n[nH]c(=O)c3ccccc23)ccc1F)N1CCN(C(=O)C2CC2)CC1 [Olaparib] (first compound max 1 µM, 7x7, partner max 10 µM)
combination Emax [1]: 0.918 | combination Emax [2]: 0.439 | combination Emax [3]: 0.799 | combination Emax [4]: 1 | combination Emax [5]: 0.879

COc1cc2c(cc1OCCCCCOc1cc3c(cc1OC)C(=O)N1C=C(C)C[C@H]1C=N3)N=C[C@@H]1CC(C)=CN1C2=O [SG3199] + O=C(c1cc(Cc2n[nH]c(=O)c3ccccc23)ccc1F)N1CCN(C(=O)C2CC2)CC1 [Olaparib] (first compound max 0.001 µM, 7x7, partner max 10 µM)
combination Emax [1]: 0.0754 | combination Emax [2]: 0.141 | combination Emax [3]: 0.28 | combination Emax [4]: 0.268 | combination Emax [5]: 0.253

CCc1c2c(nc3ccc(O)cc13)-c1cc3c(c(=O)n1C2)COC(=O)[C@]3(O)CC [SN-38] + CN(C)CCCOc1ccc(-c2ccc3ncc4c(c3c2)n(C2CCOCC2)c(=O)n4C)cn1 [AZD0156] (first compound max 0.3 µM, 7x7, partner max 1 µM)
combination Emax [1]: 0.773 | combination Emax [2]: 0.735 | combination Emax [3]: 0.584 | combination Emax [4]: 0.895 | combination Emax [5]: 0.554

CCc1c2c(nc3ccc(O)cc13)-c1cc3c(c(=O)n1C2)COC(=O)[C@]3(O)CC [SN-38] + O=C(c1cc(Cc2n[nH]c(=O)c3ccccc23)ccc1F)N1CCN(C(=O)C2CC2)CC1 [Olaparib] (first compound max 0.3 µM, 7x7, partner max 10 µM)
combination Emax [1]: 0.839 | combination Emax [2]: 0.781 | combination Emax [3]: 0.456 | combination Emax [4]: 0.99

C[C@@H](c1ccc2nccn2c1)n1nnc2ncc(-c3cnn(C)c3)nc21 [Savolitinib] + CN(CC[C@H](CSC1=CC=CC=C1)NC2=C(C=C(C=C2)S(=O)(=O)NC(=O)C3=CC=C(C=C3)N4CCC(CC4)[C@H](C5=CC=CC=C5C6=CC=C(C=C6)Cl)O)S(=O)(=O)C(F)(F)F)CCO [AZD4320] (first compound max 1 µM, 7x7, partner max 1 µM)
combination Emax [2]: 0.15 | combination Emax [6]: 0.275 | combination Emax [5]: 0.316
